Patent US10350271B2, “Lipidated peptides for lowering blood glucose” (USTAV ORGANICKE CHEMIE A BIOCHEMIE AKADEMIE VED CR, V.V.I., priority 2014, dated 2019)
Square brackets hold non-standard residues; d marks the D form. Ends that are not written are not given here. Peptide text beside a SMILES is read from it. * marks the point of attachment. Myristoyl = CCCCCCCCCCCCCC(=O)*; NMeA = CN[C@@H](C)C(=O)O; Nle = CCCC[C@H](N)C(=O)O; Sar = CNCC(=O)O

What was measured:
[1] = biological target: T1, human PrRP receptor GPR10 (Homo sapiens, UniProt P49683); experiment: Competitive binding in CHO cells transfected with human GPR10 (human 125I-PrRP31); conditions: affinity relative to PrRP31
T1 construct: host or cells: CHO cells
T1 sequence (P49683 1-370): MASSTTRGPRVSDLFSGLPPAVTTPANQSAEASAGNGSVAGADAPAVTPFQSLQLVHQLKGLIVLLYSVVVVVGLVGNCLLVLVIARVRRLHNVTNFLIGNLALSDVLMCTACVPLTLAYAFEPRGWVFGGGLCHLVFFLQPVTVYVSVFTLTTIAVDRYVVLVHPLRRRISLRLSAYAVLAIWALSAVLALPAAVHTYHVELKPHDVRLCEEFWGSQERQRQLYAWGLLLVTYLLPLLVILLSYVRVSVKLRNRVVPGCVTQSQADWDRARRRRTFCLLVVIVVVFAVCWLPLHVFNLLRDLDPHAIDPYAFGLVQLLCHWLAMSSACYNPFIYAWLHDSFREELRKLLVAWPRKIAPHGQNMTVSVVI
Experimental: (§1) Competitive binding experiments were performed according to Motulsky and Neubig (Motulsky, A., et al., “Analyzing radioligand binding data,” Curr Protoc Neurosci, Chapter 7, Unit 7.5, 2002). Binding experiments were conducted with rat pituitary cells, and with Chinese Hamster Ovary (CHO) cells as follows:
CHO cells transfected with human PrRP receptor GPR10 (Perkin Elmer, USA) were grown on 24-well plates coated with polyethyleneimine. The cells were grown to the optimal density of 40-80 thousand cells per well. The following agents were used for the experiment: binding buffer (25 mmol·l^−1 Tris, pH 7.4; 118 mmol·l^−1 NaCl, 10 mmol·l^−1 MgCl2, 10 mmol·l^−1 CaCl2, 5.5 mmol·l^−1 glucose, 0.5 mg/ml BSA), unlabeled analogs of PrRP (i.e. the analog being tested) at a final concentration between 10^−11 to 10^−4 mol·l^−1, and radiolabeled human ^125I-PrRP31 at a final concentration of 5×10^−11 mol·l^−1.
(§2) Plates were incubated for 60 minutes at room temperature. After incubation, the cells were solubilized in 0.1 mol/l solution of NaOH, and the radioactivity bound to the cells was counted using a γ-counter. The experiments were performed in duplicate, and repeated at least three times.
(§3) Graph Pad Prism Software (San Diego, Calif., USA) was used for evaluating the competitive binding experiments. Nonlinear regression was performed using a onsite binding model.

rat PrRP receptor = biological target: T2, rat PrRP receptor (Rattus norvegicus, UniProt Q64121); experiment: Competitive binding in RC-4B/C rat pituitary cells (125I-rat PrRP31); conditions: affinity relative to PrRP31
T2 construct: host or cells: RC-4B/C rat pituitary cell line
T2 sequence (Q64121 1-370): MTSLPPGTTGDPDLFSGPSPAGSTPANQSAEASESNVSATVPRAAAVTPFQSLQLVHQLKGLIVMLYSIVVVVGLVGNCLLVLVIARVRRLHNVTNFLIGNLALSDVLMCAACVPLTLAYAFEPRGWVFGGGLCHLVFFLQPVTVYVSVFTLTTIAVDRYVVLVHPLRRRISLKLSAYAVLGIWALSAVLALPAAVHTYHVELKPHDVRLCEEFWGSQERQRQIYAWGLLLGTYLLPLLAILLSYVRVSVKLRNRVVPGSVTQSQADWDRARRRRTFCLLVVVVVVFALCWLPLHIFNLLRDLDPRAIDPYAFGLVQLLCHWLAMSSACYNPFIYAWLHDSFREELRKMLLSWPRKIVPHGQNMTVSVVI
Experimental: as §1
The rat pituitary cell line RC-4B/C (ATCC, Manassas, USA) was grown on 24-well plates which had their bottom coated with polyethyleneimine. The cells were grown to the optimal density of 300-450 thousand cells per well. The following agents were used for the experiment: binding buffer (20 mmol·l^−1 HEPES, Ph 7.4; 118 mmol·l^−1 NaCl, 4.7 mmol·l^−1 KCl, 5 mmol·l^−1 MgCl2, 5.5 mmol·l^−1 glucose, 1 mg/ml BSA, 0.1 BPTI), unlabeled analogs of PrRP (i.e. the analog being tested) at a final concentration between 10^−11 to 10^−4 mol·l^−1, and rat ^125I-PrRP31 (labeled with radioactive Iodine-125) at a final concentration of […] (Maixnerová et al., 2011).
as §2, §3

| % of PrRP31, GPR10 human receptor transfected in CHO cells [1] [%] | % of PrRP31, RC-4B/C rat pituitary cells (rat PrRP receptor) [%] | Compound |
| --- | --- | --- |
| 125 | 1541 | CCCCCCCCCCCCCC(=O)N[C@H](C(=O)N1CCC[C@H]1C(=O)N[C@@H](CC(=O)O)C(=O)N[C@H](C(=O)N[C@@H](CC(N)=O)C(=O)N1CCC[C@H]1C(=O)N[C@@H](C)C(=O)N[C@@H](Cc1c[nH]c2ccccc12)C(=O)N[C@@H](Cc1ccc(O)cc1)C(=O)N[C@H](C(=O)NCC(=O)N[C@@H](CCCNC(=N)N)C(=O)N(C)CC(=O)N[C@H](C(=O)N[C@@H](CCCNC(=N)N)C(=O)N1CCC[C@H]1C(=O)N[C@H](C(=O)NCC(=O)N[C@@H](CCCNC(=N)N)C(=O)N[C@@H](Cc1ccccc1)C(N)=O)C(C)C)[C@@H](C)CC)[C@@H](C)O)[C@@H](C)CC)[C@@H](C)O [Analog 28] (Myristoyl-TPDINPAWYTGR[Sar]IRPVGRF-NH2) |
| 45 | 10 | CC[C@H](C)[C@H](NC(=O)CNC(=O)[C@H](CCCNC(=N)N)NC(=O)[C@H](CO)NC(=O)[C@H](C)N(C)C(=O)[C@H](Cc1ccc(O)cc1)NC(=O)[C@H](Cc1c[nH]c2ccccc12)NC(=O)[C@H](C)NC(=O)[C@@H]1CCCN1C(=O)[C@H](CC(N)=O)NC(=O)[C@@H](NC(=O)[C@H](CC(=O)O)NC(=O)[C@@H]1CCCN1C(=O)[C@@H](N)[C@@H](C)O)[C@@H](C)CC)C(=O)N[C@@H](CCCNC(=N)N)C(=O)N1CCC[C@H]1C(=O)N[C@H](C(=O)NCC(=O)N[C@@H](CCCNC(=N)N)C(=O)N[C@@H](Cc1ccccc1)C(N)=O)C(C)C [Analog 29] (H-TPDINPAWY[NMeA]SRGIRPVGRF-NH2) |
| 185 | 1072 | CCCCCCCCCCCCCC(=O)N[C@H](C(=O)N1CCC[C@H]1C(=O)N[C@@H](CC(=O)O)C(=O)N[C@H](C(=O)N[C@@H](CC(N)=O)C(=O)N1CCC[C@H]1C(=O)N[C@@H](C)C(=O)N[C@@H](Cc1c[nH]c2ccccc12)C(=O)N[C@@H](Cc1ccc(O)cc1)C(=O)N(C)[C@@H](C)C(=O)N[C@@H](CO)C(=O)N[C@@H](CCCNC(=N)N)C(=O)NCC(=O)N[C@H](C(=O)N[C@@H](CCCNC(=N)N)C(=O)N1CCC[C@H]1C(=O)N[C@H](C(=O)NCC(=O)N[C@@H](CCCNC(=N)N)C(=O)N[C@@H](Cc1ccccc1)C(N)=O)C(C)C)[C@@H](C)CC)[C@@H](C)CC)[C@@H](C)O [Analog 30] (Myristoyl-TPDINPAWY[NMeA]SRGIRPVGRF-NH2) |
| 46 | 68 | CCCCCCCCCCCCCC(=O)N[C@H](C(=O)N1CCC[C@H]1C(=O)N[C@@H](CC(=O)O)C(=O)N[C@H](C(=O)N[C@@H](CC(N)=O)C(=O)N1CCC[C@H]1C(=O)N[C@@H](C)C(=O)N[C@@H](Cc1c[nH]c2ccccc12)C(=O)N[C@@H](Cc1ccc(O)cc1)C(=O)N[C@H](C(=O)NCC(=O)N[C@@H](CCCNC(=N)N)C(=O)NCC(=O)N[C@@H](C)C(=O)N[C@@H](CCCNC(=N)N)C(=O)N1CCC[C@H]1C(=O)N[C@@H](Cc1ccccc1)C(=O)NCC(=O)N[C@@H](CCCNC(=N)N)C(=O)N[C@@H](Cc1ccccc1)C(N)=O)[C@@H](C)O)[C@@H](C)CC)[C@@H](C)O [Analog 32] (Myristoyl-TPDINPAWYTGRGARPFGRF-NH2) |
| 671 | 587 | CCCCCCCCCCCCCC(=O)N[C@H](C(=O)N1CCC[C@H]1C(=O)N[C@@H](CC(=O)O)C(=O)N[C@H](C(=O)N[C@@H](CC(N)=O)C(=O)N1CCC[C@H]1C(=O)N[C@@H](C)C(=O)N[C@@H](Cc1c[nH]c2ccccc12)C(=O)N[C@@H](Cc1ccc(O)cc1)C(=O)N[C@@H](C)C(=O)N[C@@H](CO)C(=O)N[C@@H](CCCNC(=N)N)C(=O)N1CCC[C@H]1C(=O)N[C@@H](Cc1ccccc1)C(=O)N[C@@H](CCCNC(=N)N)C(=O)N1CCC[C@H]1C(=O)N[C@H](C(=O)NCC(=O)N[C@@H](CCCNC(=N)N)C(=O)N[C@@H](Cc1ccccc1)C(N)=O)C(C)C)[C@@H](C)CC)[C@@H](C)O [Analog 34] (Myristoyl-TPDINPAWYASRPFRPVGRF-NH2) |
| 113 | 168 | CCCC[C@H](N)C(=O)N[C@@H](CCC(=O)O)C(=O)N[C@H](C(=O)N[C@@H](CCCNC(=N)N)C(=O)N[C@H](C(=O)N1CCC[C@H]1C(=O)N[C@@H](CC(=O)O)C(=O)N[C@H](C(=O)N[C@@H](CC(N)=O)C(=O)N1CCC[C@H]1C(=O)N[C@@H](C)C(=O)N[C@@H](Cc1c[nH]c2ccccc12)C(=O)N[C@@H](Cc1ccc(O)cc1)C(=O)N[C@H](C(=O)NCC(=O)N[C@@H](CCCNC(=N)N)C(=O)NCC(=O)N[C@H](C(=O)N[C@@H](CCCNC(=N)N)C(=O)N1CCC[C@H]1C(=O)N[C@H](C(=O)NCC(=O)N[C@@H](CCCNC(=N)N)C(=O)N[C@@H](Cc1ccccc1)C(N)=O)C(C)C)[C@@H](C)CC)[C@@H](C)O)[C@@H](C)CC)[C@@H](C)O)[C@@H](C)O [Analog 35] (H-[Nle]ETRTPDINPAWYTGRGIRPVGRF-NH2) |
| 71 | 1096 | CCCCCCCCCCCCCC(=O)N[C@@H](CCCC)C(=O)N[C@@H](CCC(=O)O)C(=O)N[C@H](C(=O)N[C@@H](CCCNC(=N)N)C(=O)N[C@H](C(=O)N1CCC[C@H]1C(=O)N[C@@H](CC(=O)O)C(=O)N[C@H](C(=O)N[C@@H](CC(N)=O)C(=O)N1CCC[C@H]1C(=O)N[C@@H](C)C(=O)N[C@@H](Cc1c[nH]c2ccccc12)C(=O)N[C@@H](Cc1ccc(O)cc1)C(=O)N[C@H](C(=O)NCC(=O)N[C@@H](CCCNC(=N)N)C(=O)NCC(=O)N[C@H](C(=O)N[C@@H](CCCNC(=N)N)C(=O)N1CCC[C@H]1C(=O)N[C@H](C(=O)NCC(=O)N[C@@H](CCCNC(=N)N)C(=O)N[C@@H](Cc1ccccc1)C(N)=O)C(C)C)[C@@H](C)CC)[C@@H](C)O)[C@@H](C)CC)[C@@H](C)O)[C@@H](C)O [Analog 36] (Myristoyl-[Nle]ETRTPDINPAWYTGRGIRPVGRF-NH2) |
| 56 | 1332 | CCCCCCCCCCCCCC(=O)N[C@@H](CCC(N)=O)C(=O)N[C@@H](Cc1c[nH]cn1)C(=O)N[C@@H](CO)C(=O)N[C@@H](CCSC)C(=O)N[C@@H](CCC(=O)O)C(=O)N[C@H](C(=O)N[C@@H](CCCNC(=N)N)C(=O)N[C@H](C(=O)N1CCC[C@H]1C(=O)N[C@@H](CC(=O)O)C(=O)N[C@H](C(=O)N[C@@H](CC(N)=O)C(=O)N1CCC[C@H]1C(=O)N[C@@H](C)C(=O)N[C@@H](Cc1c[nH]c2ccccc12)C(=O)N[C@@H](Cc1ccc(O)cc1)C(=O)N[C@H](C(=O)NCC(=O)N[C@@H](CCCNC(=N)N)C(=O)NCC(=O)N[C@H](C(=O)N[C@@H](CCCNC(=N)N)C(=O)N1CCC[C@H]1C(=O)N[C@H](C(=O)NCC(=O)N[C@@H](CCCNC(=N)N)C(=O)N[C@@H](Cc1ccccc1)C(N)=O)C(C)C)[C@@H](C)CC)[C@@H](C)O)[C@@H](C)CC)[C@@H](C)O)[C@@H](C)O [Analog 38] (Myristoyl-QHSMETRTPDINPAWYTGRGIRPVGRF-NH2) |
| 66 | 189 | QHSMETRTPDINPAWYTGRGIRPVGRF-NH2 [Analog 37] |
| 225 | 230 | TPDINPAWYASRPFRPVGRF-NH2 [Analog 33] |
| 0.7 | 0.8 | TPDINPAWYTGRGARPFGRF-NH2 [Analog 31] |
